# Entries after “also recorded” stand apart in the source; their conditions may differ. Numbered stars: 1 amine (or outer) side, 2 acyl side, 3 side chain; on linkers, the order of the positions; unused ones are H or OH. Bridge positions count the residues as written; N and C are the ends. Square brackets hold non-standard residues; d marks the D form. Peptide text beside a SMILES is read from it. I, II: the chains in the order shown. Actinocin(9to1) = Cc1c2oc3c(C)ccc(C(=O)[*:1])c3nc-2c(C(=O)[*:2])c(N)c1=O; NMeV = CN[C@H](C(=O)O)C(C)C; Sar = CNCC(=O)O
# Experiments:
# NSD2-PWWP1 = target: T1, NSD2-PWWP1 (Homo sapiens, UniProt O96028); experiment: SPR binding to immobilized NSD2-PWWP1
# T1 sequence (O96028 208-368): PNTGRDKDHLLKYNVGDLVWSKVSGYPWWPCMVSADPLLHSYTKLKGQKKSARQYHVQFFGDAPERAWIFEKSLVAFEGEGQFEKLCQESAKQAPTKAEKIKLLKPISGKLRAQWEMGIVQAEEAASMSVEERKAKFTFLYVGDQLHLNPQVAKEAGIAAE
# [1] = tested on: NSD2-GFP localization in U2OS cells; experiment: Nucleolar colocalization of GFP-tagged NSD2 WT and mutants with RFP-fibrillarin; assay type: cell-based; conditions: 4 h, 5 μM compound
# [2] = tested on: adherent or hematopoietic malignancy cell lines; experiment: Cytotoxicity profiling; assay type: cell-based; conditions: up to 5 μM over 3–12 d
# [3] = tested on: mRNA levels of NSD2 target genes in KMS-11 cells; experiment: RT-qPCR of NSD2 target genes; assay type: cell-based; conditions: 5 μM, 72 h
# [4] = tested on: fl-NSD2 chromatin association in KMS-11 cells; experiment: Cell fractionation, NSD2 release from chromatin; assay type: cell-based; conditions: KMS-11 cell fractionation, 10 μM compound
# [5] = tested on: loci-specific H3K36me2 levels in KMS-11 cells; experiment: H3K36me2 ChIP-qPCR; assay type: cell-based; conditions: 5 μM, 72 h
# [6] = tested on: global H3K36 methylation in KMS-11 cells; experiment: Western blotting for global H3K36 methylation; assay type: cell-based; conditions: 72 h
# [7] = target: human sodium-dependent serotonin transporter (Homo sapiens, UniProt P31645); experiment: NIMH PDSP panel of CNS receptors, channels and transporters; assay type: binding
# KMS-11 t(4; 14) MM cells = experiment: Proliferation of KMS-11 cocultured with OP9 bone marrow stromal cells; assay type: cell-based; conditions: 5 μM for 10 d before seeding on OP9
# [8] = tested on: endogenous NSD2 localization in U2OS cells; experiment: Confocal microscopy of endogenous NSD2 nucleolar localization; assay type: cell-based; conditions: 4 h; for steady-state pool of nucleolar NSD2 under nucleolar perturbation: actinomycin D 50 nM, doxorubicin 1 μM
# [9] = target: T2, NSD3-PWWP1 interaction with histone H3.3 (Homo sapiens, UniProt Q9BZ95); experiment: NanoBRET PPI assay, NSD3-PWWP1; assay type: cell-based; conditions: U2OS cells, 10 μM compound
# T2 sequence (Q9BZ95 270-333 limits assumed): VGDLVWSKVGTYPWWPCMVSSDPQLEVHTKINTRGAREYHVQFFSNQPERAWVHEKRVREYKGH
# [10] = tested on: panel of 33 methyltransferase domains, including NSD1, NSD2, NSD3 and SETD2; experiment: Methyltransferase selectivity panel; assay type: biochemical; conditions: 1 and 10 μM compound
# [11] = tested on: ribosomal RNA (rRNA) transcription; experiment: rRNA transcription; conditions: for pre-rRNA expression levels by RT-qPCR: 5 μM compound at 2, 4, or 16 hours
# endogenous NSD2 = target: T3, endogenous NSD2 (Homo sapiens, UniProt O96028); experiment: UNC7096 chemical pulldown and chemical proteomics in KMS-11 whole-cell lysates; assay type: binding
# T3 sequence (O96028 1-627 limits assumed): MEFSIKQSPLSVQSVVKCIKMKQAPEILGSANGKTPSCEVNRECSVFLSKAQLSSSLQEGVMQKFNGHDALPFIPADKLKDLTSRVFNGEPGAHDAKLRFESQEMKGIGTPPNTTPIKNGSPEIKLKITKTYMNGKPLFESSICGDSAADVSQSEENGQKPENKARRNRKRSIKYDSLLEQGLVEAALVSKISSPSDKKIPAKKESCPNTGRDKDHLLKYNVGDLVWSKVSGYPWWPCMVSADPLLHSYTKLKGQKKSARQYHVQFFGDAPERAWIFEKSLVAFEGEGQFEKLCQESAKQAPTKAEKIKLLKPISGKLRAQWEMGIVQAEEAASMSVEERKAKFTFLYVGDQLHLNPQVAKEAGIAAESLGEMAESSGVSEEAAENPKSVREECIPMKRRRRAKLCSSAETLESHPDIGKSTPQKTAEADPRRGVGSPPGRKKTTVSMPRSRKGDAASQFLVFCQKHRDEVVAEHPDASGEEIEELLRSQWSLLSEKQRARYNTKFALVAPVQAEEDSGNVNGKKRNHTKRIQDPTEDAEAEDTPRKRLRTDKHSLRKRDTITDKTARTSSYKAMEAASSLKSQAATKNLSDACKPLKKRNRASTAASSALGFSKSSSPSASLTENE
# [12] = target: T4, fl-NSD2 interaction with nucleosomal H3K36me2 (Homo sapiens, UniProt O96028); experiment: AlphaScreen; assay type: binding; conditions: read-out: IC50, disengagement of fl-NSD2 from nucleosomal H3K36me2, in the presence of SSD (2 μg ml^−1)
# T4 sequence (O96028 1-1365): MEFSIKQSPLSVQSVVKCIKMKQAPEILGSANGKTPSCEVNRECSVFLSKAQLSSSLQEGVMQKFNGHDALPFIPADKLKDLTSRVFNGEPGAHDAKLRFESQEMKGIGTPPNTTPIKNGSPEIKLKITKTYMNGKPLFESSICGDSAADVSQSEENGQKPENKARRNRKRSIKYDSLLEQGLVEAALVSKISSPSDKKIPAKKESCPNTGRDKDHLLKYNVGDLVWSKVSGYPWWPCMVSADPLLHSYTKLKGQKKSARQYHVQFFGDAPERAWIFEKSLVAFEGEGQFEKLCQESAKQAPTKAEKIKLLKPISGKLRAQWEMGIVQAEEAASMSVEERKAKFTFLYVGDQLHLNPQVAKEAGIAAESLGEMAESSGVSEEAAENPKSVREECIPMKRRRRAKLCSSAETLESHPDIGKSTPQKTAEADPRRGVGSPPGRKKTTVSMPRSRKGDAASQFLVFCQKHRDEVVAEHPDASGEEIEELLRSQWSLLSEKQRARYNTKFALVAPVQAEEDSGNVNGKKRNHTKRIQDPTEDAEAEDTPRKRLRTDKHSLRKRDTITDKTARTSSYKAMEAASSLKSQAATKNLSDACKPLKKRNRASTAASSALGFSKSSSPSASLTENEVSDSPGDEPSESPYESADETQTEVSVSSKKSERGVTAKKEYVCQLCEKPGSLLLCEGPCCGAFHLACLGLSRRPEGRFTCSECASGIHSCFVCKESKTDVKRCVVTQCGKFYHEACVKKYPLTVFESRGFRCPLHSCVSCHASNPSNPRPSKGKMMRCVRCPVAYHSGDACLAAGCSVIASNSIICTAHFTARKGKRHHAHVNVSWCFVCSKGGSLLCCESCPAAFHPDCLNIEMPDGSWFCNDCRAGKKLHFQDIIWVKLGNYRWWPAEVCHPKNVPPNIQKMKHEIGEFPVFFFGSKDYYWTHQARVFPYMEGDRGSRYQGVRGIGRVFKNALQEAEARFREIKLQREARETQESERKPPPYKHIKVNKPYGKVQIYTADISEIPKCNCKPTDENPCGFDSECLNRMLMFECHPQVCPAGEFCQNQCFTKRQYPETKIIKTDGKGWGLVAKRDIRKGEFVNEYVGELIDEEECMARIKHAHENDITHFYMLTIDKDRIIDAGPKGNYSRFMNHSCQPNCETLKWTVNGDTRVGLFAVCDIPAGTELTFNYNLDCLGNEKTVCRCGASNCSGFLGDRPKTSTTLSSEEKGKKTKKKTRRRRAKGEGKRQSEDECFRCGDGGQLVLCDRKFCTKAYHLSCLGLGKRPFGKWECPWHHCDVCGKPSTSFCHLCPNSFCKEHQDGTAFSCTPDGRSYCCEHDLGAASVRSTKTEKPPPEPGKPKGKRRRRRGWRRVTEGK
# [13] = target: T5, dsDNA binding to NSD2-PWWP1 (Homo sapiens, UniProt O96028); experiment: Fluorescence polarization DNA binding and displacement assay; conditions: FP
# T5 sequence (O96028 208-368): T1 sequence (O96028 208-368)
# [14] = target: T6, NSD2-PWWP1 interaction with nucleosomal H3K36me2 (Homo sapiens, UniProt O96028); experiment: AlphaScreen; assay type: binding
# T6 sequence (O96028 208-368): T1 sequence (O96028 208-368)
# [15] = tested on: 15 other human PWWP domains; conditions: DSF, 100 μM compound
# Sequence of human sodium-dependent serotonin transporter (P31645 whole entry): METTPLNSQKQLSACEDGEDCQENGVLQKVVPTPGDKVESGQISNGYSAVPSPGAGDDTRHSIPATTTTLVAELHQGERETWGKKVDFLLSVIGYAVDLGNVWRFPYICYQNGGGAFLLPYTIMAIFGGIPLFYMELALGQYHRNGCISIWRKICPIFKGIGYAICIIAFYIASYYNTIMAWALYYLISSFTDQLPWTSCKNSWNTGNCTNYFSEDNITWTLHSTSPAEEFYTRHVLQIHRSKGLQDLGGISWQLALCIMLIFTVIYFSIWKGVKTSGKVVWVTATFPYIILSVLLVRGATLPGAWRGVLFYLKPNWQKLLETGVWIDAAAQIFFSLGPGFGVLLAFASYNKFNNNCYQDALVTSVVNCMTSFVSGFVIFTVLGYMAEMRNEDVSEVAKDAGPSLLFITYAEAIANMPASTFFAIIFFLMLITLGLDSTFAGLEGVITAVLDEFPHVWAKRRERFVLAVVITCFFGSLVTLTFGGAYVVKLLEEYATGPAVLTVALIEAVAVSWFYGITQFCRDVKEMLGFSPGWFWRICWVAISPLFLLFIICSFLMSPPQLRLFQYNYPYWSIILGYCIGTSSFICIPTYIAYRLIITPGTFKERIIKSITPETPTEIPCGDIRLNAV
smiles,measurement,setting,value
O=C1COc2cc(C(=O)N(Cc3cccs3)C3CC3)ccc2N1 [MRT866],Kd,NSD2-PWWP1,349 ± 19 nM
O=C1COc2cc(C(=O)N(Cc3ccc(C(=O)Nc4ccncn4)cc3)C3CC3)ccc2N1 [UNC6934],nucleolar localization of PWWP1 aromatic cage mutant NSD2-GFP,[1],no further increase
same,nucleolar signal of WT NSD2-GFP,[1],increase in nucleolar signal
same,nucleolar colocalization of PHD2 and PWWP2 mutant NSD2-GFP,"[1]; H762R, W894A",additive effect
same,acute cytotoxic effects,[2],no acute cytotoxic effects
same,mRNA levels of NSD2 target genes,[3],did not observe changes
same,release of fl-NSD2 from chromatin,[4],modest release
same,loci-specific H3K36me2 levels,[5],did not observe changes
same,global H3K36 methylation,[6],no significant change; also recorded: no changes
same,Ki,[7],1400 ± 800 nM
same,inhibition at 10 µM,[7],> 50%
same,proliferation of KMS-11 cells grown on bone marrow stroma,KMS-11 t(4; 14) MM cells,no changes
same,NSD2 signal within nucleoli,[8]; 5 μM compound,increase in NSD2 signal within nucleoli
same,correlation (PCC) between NSD2 and fibrillarin signals,[8]; 5 μM compound,significant increase
same,BRET signal of NSD3-PWWP1,[9],unaffected
same,inhibition of methyltransferases,[10],did not inhibit any
same,effect on ribosomal RNA (rRNA) transcription,[11]; 5 μM compound,no significant effect
same,pre-rRNA expression levels by RT-qPCR,[11],no major effect
O=C(CCCC[C@@H]1SC[C@@H]2NC(=O)N[C@@H]21)NCCOCCOCCOCCOCCOCCOCCOCCOCCOCCOCCOCCNC(=O)c1ccc(NC(=O)c2ccc(CN(C(=O)c3ccc4c(c3)OCC(=O)N4)C3CC3)cc2)cc1 [UNC7096],Kd,NSD2-PWWP1,46 nM
same,enrichment of NSD2-short and NSD2-long isoforms by pulldown,"endogenous NSD2; KMS-11 whole-cell lysates, immunoblotting",efficiently enriched
CC(C)N(Cc1ccc(C(=O)Nc2ccncn2)cc1)C(=O)c1ccc2c(c1)OCC(=O)N2 [UNC7145],IC50,[12],5100 ± 1000 nM
same,pattern of dsDNA binding to NSD2-PWWP1 in the presence of compound,"[13]; 20 μM compound, NSD2-PWWP1 up to 2.5 μM",No significant difference
same,displacement of fluorescein-labelled dsDNA from NSD2-PWWP1,[13]; compound up to 25 μM,no significant effect
same,acute cytotoxic effects,[2],no acute cytotoxic effects
same,proteins depleted from UNC7096 pulldown by competition,"endogenous NSD2; label-free proteomics, 20 μM compound, relative to DMSO",did not considerably alter the enrichment profile
same,global H3K36 methylation,[6],no significant change
same,"IC50, disruption of NSD2-PWWP1 interaction with nucleosomal H3K36me2",[14],no measurable effect
same,selectivity over other PWWP domains,[15],inactive
same,NSD2 signal within nucleoli,[8]; 5 μM compound,no effect
same,inhibition of methyltransferases,[10],inactive
same,pre-rRNA expression levels by RT-qPCR,[11],no major effect
"Cc1c2oc3c(C)ccc(C(=O)N[C@@H]4C(=O)N[C@H](C(C)C)C(=O)N5CCC[C@H]5C(=O)N(C)CC(=O)N(C)[C@@H](C(C)C)C(=O)O[C@@H]4C)c3nc-2c(C(=O)N[C@@H]2C(=O)N[C@H](C(C)C)C(=O)N3CCC[C@H]3C(=O)N(C)CC(=O)N(C)[C@@H](C(C)C)C(=O)O[C@@H]2C)c(N)c1=O [actinomycin D, reference compound] (I: T[dV]P[Sar][NMeV] / II: T[dV]P[Sar][NMeV]; ester I:1-I:C, II:1-II:C; linker I:N-II:N via Actinocin(9to1))",steady-state pool of nucleolar NSD2 under nucleolar perturbation,[8],sensitive
"COc1cccc2c1C(=O)c1c(O)c3c(c(O)c1C2=O)C[C@@](O)(C(=O)CO)C[C@@H]3O[C@H]1C[C@H](N)[C@H](O)[C@H](C)O1 [doxorubicin, reference compound]",steady-state pool of nucleolar NSD2 under nucleolar perturbation,[8],sensitive
